Like-named read-outs stand apart in the source and are kept apart here.
Legend:
Assay type in all cases: cell-based, human
H1819 = test: Cell viability dose-response, H1819; details: for AC50: NCI-H1819, Table 8, 12-point dose-response starting at 50 micromolar
Outline: (§1)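 Cells plated at 15% confluence in RPMI-1640 with 5% FBS and 2 mM L-glutamine, treated with compound in a 12-point, 3-fold dilution series from 50 micromolar, in duplicate. ATP measured by Cell Titer Glo after 4 days; IC50 taken from the dose-response curve.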

H2073 = test: Cell viability dose-response, H2073; details: for AC50: NCI-H2073, Table 8, 12-point dose-response starting at 50 micromolar
Experimental: (§2) FIG. 6A. […] Cell viability is plotted vs. compound concentration. Compound was added to cells plated at 15% confluence in 96-well plates in RPMI-1640 media supplemented with 5% Fetal Bovine Serum and 2 mM L-Glutamine. After 4 days of incubation, ATP levels were measured using Cell Titer Glo (Promega). Data are presented as the average of 2 replicates ±SEM.
(§3) Selectivity may be measured by the half maximal inhibitory concentration (IC50), which, as used herein, is a measure of the effectiveness of a compound in killing cells. This quantitative measure indicates how much of a particular compound is needed to kill a particular cell population by half (e.g., as indicated by the amount of ATP). […] The IC50 can be determined by constructing a dose-response curve. The lower the IC50, the higher the potency, and the greater the difference between IC50 values for different cell lines (e.g., sensitive lines vs. insensitive lines, and sensitive lines vs. normal lines) the greater the selectivity. […]
With this information, we synthesized and tested a series of small molecules derived in conception from the oxalamide and chromone scaffold including N-acyl ureas, as shown in Tables 6-8. Each compound was tested in a 12-point dose-response study starting at 50 micromolar and decreasing in 3-fold increments to sub-nanomolar concentrations, in duplicate. Additionally, one or more additional cell line was tested in the same way.

H2122 = test: Cell viability dose-response, H2122; details: for AC50: NCI-H2122, Table 8, 12-point dose-response starting at 50 micromolar
Outline: as §1

HCC44 = test: Cell viability dose-response, HCC44; details: Homo sapiens, HCC44, Table 8; 12-point dose-response starting at 50 micromolar
Outline: (§4)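 IC50 values derive from 12-point, 3-fold dilution curves starting at 50 micromolar, run in duplicate. ATP content was read by CellTiter-Glo after 4 days of compound treatment. Cells were plated at 15% confluence in RPMI-1640 containing 5% FBS and 2 mM L-glutamine.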

H2009 = test: Cell viability dose-response, H2009; details: Homo sapiens, NCI-H2009; Tables 3 and 4; read-out: IC50 (uM) vs indicated non-small cell lung cancer cell line H2009
Outline: as §4

HBEC30KT = test: Cell viability (ATP, Cell Titer Glo, 4 days), HBEC30KT; details: Homo sapiens, Tables 3 and 4; read-out: HBEC30KT IC50
Experimental: as §2, §3

[1] = Homo sapiens, NCI-H1819, Tables 3 and 4, read-out: IC50 (uM) vs indicated non-small cell lung cancer cell line H1819
[2] = Homo sapiens, NCI-H2073, Tables 3 and 4, read-out: IC50 (uM) vs indicated non-small cell lung cancer cell line H2073
[3] = Homo sapiens, NCI-H2122, Tables 3 and 4, read-out: IC50 (uM) vs indicated non-small cell lung cancer cell line H2122

Row | SMILES | AC50 (H1819; Homo sapiens) [µM] | AC50 (H2073; Homo sapiens) [µM] | AC50 (H2122; Homo sapiens) [µM] | IC50 (H1819; [1]) [µM] | IC50 (H2073; [2]) [µM] | IC50 (H2122; [3]) [µM] | further results
1 | O=c1c(Oc2ccccc2F)coc2cc(OCc3cnn(-c4ccccc4)c3)ccc12 [SW043139] | 50 | 50 | 0.166 |  |  |  | AC50 (HCC44): 50 µM
2 | COc1ccc2nc(NS(=O)(=O)c3ccc(Br)cc3)sc2c1 [SW166942] |  |  |  | 46.7 | 47.6 | 59.6 | IC50 (H2009): 78.6 µM
3 | O=C(Nc1ccc([N+](=O)[O-])cc1F)c1sc2ccccc2c1Cl [SW202552] |  |  |  |  |  | 122 | IC50 (HBEC30KT): 4950 µM
4 | COc1ccc2nc(NS(=O)(=O)c3ccc(C(F)(F)F)cc3)sc2c1 [SW202746] |  |  |  | 36 | 38 | 46.1 | IC50 (H2009): 42.7 µM
5 | COc1ccc2nc(NS(=O)(=O)CC34CCC(CC3=O)C4(C)C)sc2c1 (centres unmarked) [SW202752] |  |  |  | 166 | 110 |  | IC50 (H2009): 4950 µM
6 | C#CCOc1ccc(C(=O)c2ccc(C(=O)Nc3nc4ccc(OC)cc4s3)cc2)cc1 [SW209049-2] |  |  |  |  |  |  | IC50 (H1819; Tables 3 and 4, read-out: IC50 (uM) vs indicated non-small cell lung cancer cell line H1819): 21 µM; IC50 (H2073; Tables 3 and 4, read-out: IC50 (uM) vs indicated non-small cell lung cancer cell line H2073): 18 µM; IC50 (H2122; Tables 3 and 4, read-out: IC50 (uM) vs indicated non-small cell lung cancer cell line H2122): 0.131 µM
7 | C#CCNC(=O)c1ccc(C(=O)Nc2nc3ccccc3s2)cc1 [SW209082-1] |  |  |  | 45.5 | 45.5 | 0.1 | 
8 | O=C(c1ccccc1)c1ccc(NC(=O)c2nc3ccccc3s2)cc1 [SW209091-1] |  |  |  | 9.03 | 24 | 0.01 | 
9 | C#CCOC(=O)Nc1ccc(C(=O)Nc2nc3ccccc3s2)cc1 [SW209168-1] |  |  |  | 40.1 | 39.2 | 0.029 | 
10 | O=c1c(Cc2ccccn2)coc2cc(OCc3cnn(-c4ccccc4)c3)ccc12 [SW209187-1] | 49.5 | 49.5 | 0.28 |  |  |  | 
11 | O=c1c(Cc2ccncc2)coc2cc(OCc3cnn(-c4ccccc4)c3)ccc12 [SW209193-1] | 49.5 | 49.5 | 0.549 |  |  |  | 
12 | O=C1/C(=C/c2ccc(F)cc2)COc2cc(OCc3cnn(-c4ccccc4)c3)ccc21 [SW209194-1] | 49.5 | 49.5 | 0.876 |  |  |  | 
13 | O=C1/C(=C/c2ccccc2C(F)(F)F)COc2cc(OCc3cnn(-c4ccccc4)c3)ccc21 [SW209195-1] | 49.5 | 0.39 | 0.085 |  |  |  | 
14 | O=C1/C(=C/c2ccccc2F)COc2cc(OCc3cnn(-c4ccccc4)c3)ccc21 [SW209196-1] | 41 | 49.5 | 0.827 |  |  |  | 
15 | O=C1/C(=C/c2cccc(C(F)(F)F)c2)COc2cc(OCc3cnn(-c4ccccc4)c3)ccc21 [SW209197-1] | 21.8 | 26 | 0.042 |  |  |  | 
16 | O=C1/C(=C/c2ccc(C(F)(F)F)cc2)COc2cc(OCc3cnn(-c4ccccc4)c3)ccc21 [SW209198-1] | 49.5 | 49.5 | 1.44 |  |  |  | 
17 | Cc1ccc(/C=C2\COc3cc(OCc4cnn(-c5ccccc5)c4)ccc3C2=O)cc1 [SW209199-1] | 39.5 | 36.1 | 43.7 |  |  |  | 
18 | Cc1ccccc1/C=C1\COc2cc(OCc3cnn(-c4ccccc4)c3)ccc2C1=O [SW209200-1] | 49.5 | 49.5 | 0.874 |  |  |  | 
19 | O=C(CCc1ccc(Br)cc1)Cn1ccnc1 [SW209201-1] | 49.5 | 49.5 | ≥ 49.5 |  |  |  | 
20 | O=C1c2ccc(OCc3cnn(-c4ccccc4)c3)cc2OCC1Cc1ccccc1 (centres unmarked) [SW209202-1] | 49.5 | 49.5 | 0.307 |  |  |  | 
21 | O=c1c(Cc2cccnc2)coc2cc(OCc3cnn(-c4ccccc4)c3)ccc12 [SW209203-1] | 49.5 | 44 | 3.17 |  |  |  | 
22 | O=C(Nc1nc2ccccc2s1)c1cccc([N+](=O)[O-])c1 [SW209205-1] |  |  |  | 0.468 | 49.5 | 0.397 | 
23 | O=C(Nc1nc2ccccc2[nH]1)c1ccc([N+](=O)[O-])cc1 [SW209206-1] |  |  |  | ≥ 49.5 | 49.5 | ≥ 49.5 | 

Row | SMILES | AC50 (H1819; Homo sapiens) [µM] | AC50 (H2073; Homo sapiens) [µM] | AC50 (H2122; Homo sapiens) [µM] | IC50 (H1819; [1]) [µM] | IC50 (H2073; [2]) [µM] | IC50 (H2122; [3]) [µM] | further results
24 | O=c1c(Cc2cnccn2)coc2cc(OCc3cnn(-c4ccccc4)c3)ccc12 [SW209207-1] | 49.5 | 49.5 | 26.6 |  |  |  | 
25 | Nc1cccc(C(=O)Nc2nc3ccccc3s2)c1 [SW209323-1] |  |  |  | 40.3 | 0.816 | 0.099 | 
26 | COc1ncccc1Cc1coc2cc(OCc3cnn(-c4ccccc4)c3)ccc2c1=O [SW209377-1] | 49.5 | 0.204 | 0.232 |  |  |  | 
27 | O=c1c(Cc2cccs2)coc2cc(OCc3cnn(-c4ccccc4)c3)ccc12 [SW209378-1] | 49.5 | 0.068 | 0.081 |  |  |  | 
28 | O=c1c(Cc2ccsc2)coc2cc(OCc3cnn(-c4ccccc4)c3)ccc12 [SW209379-1] | 49.5 | 0.087 | 0.082 |  |  |  | 
29 | O=c1c(Cc2nccs2)coc2cc(OCc3cnn(-c4ccccc4)c3)ccc12 [SW209380-1] | 21.2 | 17.7 | 0.352 |  |  |  | 
30 | O=c1c(Cc2cccc(O)c2)coc2cc(OCc3cnn(-c4ccccc4)c3)ccc12 [SW209381-1] | 49.5 | 49.5 | 7.03 |  |  |  | 
31 | O=c1c(Cc2ccc(Cl)nc2)coc2cc(OCc3cnn(-c4ccccc4)c3)ccc12 [SW209382-1] | 49.5 | 0.244 | 0.325 |  |  |  | 
32 | NCCCCCOc1cccc(CC2=CCc3cc(OCc4cnn(-c5ccccc5)c4)ccc3C2=O)c1 [SW209383-1] | 49.5 | 49.5 | 2.37 |  |  |  | 
33 | O=C1/C(=C/c2ncc[nH]2)COc2cc(OCc3cnn(-c4ccccc4)c3)ccc21 [SW209384-1] | 15.5 | 9.68 | 14 |  |  |  | 
34 | O=C1/C(=C/c2c[nH]cn2)COc2cc(OCc3cnn(-c4ccccc4)c3)ccc21 [SW209385-1] | 18 | 12.2 | ≥ 49.5 |  |  |  | 
35 | NC(=O)c1ccc(C(=O)Nc2nc3ccccc3s2)cc1 [SW209411-1] |  |  |  | 3.1 | 27.8 | ≥ 49.5 | 
36 | O=C(O)c1ccc(C(=O)Nc2nc3ccccc3s2)cc1 [SW209412-1] |  |  |  | ≥ 49.5 | 49.5 | ≥ 49.5 | 
37 | Nc1ccc2nc(NC(=O)c3ccc(C(=O)O)cc3)sc2c1 [SW209413-1] |  |  |  | ≥ 49.5 | 49.5 | ≥ 49.5 | 
38 | COC(=O)c1ccc(C(=O)Nc2nc3ccccc3s2)cc1 [SW209414-1] |  |  |  | ≥ 49.5 | 49.5 | ≥ 49.5 | 
39 | O=C(Nc1nc2cnccc2s1)c1ccccc1 [SW209562-1] |  |  |  | ≥ 49.5 | 49.5 | ≥ 49.5 | 
40 | Nc1ccc(C(=O)Nc2nc3ccccc3s2)cc1 [SW209563-1] |  |  |  | 19.7 | 0.184 | 0.027 | 
41 | O=C(c1ccccc1)c1ccc(/C(=N/c2nc3ccc(OCc4ccc(Cl)cc4)cc3s2)OCc2ccc(Cl)cc2)cc1 [SW211559-1] |  |  |  | 0.9 | 0.165 | 0.086 | 
42 | C#CCOc1ccc(C(=O)c2ccc(NC(=O)C(=O)NCCc3ccccc3)cc2)cc1 [SW211560-1] |  |  |  |  |  |  | IC50 (H1819; Homo sapiens, NCI-H1819, 12-point dose-response starting at 50 micromolar, 3-fold increments, in duplicate, read-out: toxicity data, H1819): ≥ 49.5 µM; IC50 (H2073; Homo sapiens, NCI-H2073, 12-point dose-response starting at 50 micromolar, 3-fold increments, in duplicate, read-out: toxicity data, H2073): 22.7 µM; IC50 (H2122; Homo sapiens, NCI-H2122, 12-point dose-response starting at 50 micromolar, 3-fold increments, in duplicate, read-out: toxicity data, H2122): ≥ 49.5 µM
43 | COC(=O)c1ccc2nc(NC(=O)c3ccc(C(=O)c4ccccc4)cc3)sc2c1 [SW211561-1] |  |  |  | 16.5 | 29.1 | 7.75 | 
44 | Nc1ccc(C(=O)Nc2nc3ccccc3[nH]2)cc1 [SW211566] |  |  |  | ≥ 49.5 | 49.5 | ≥ 49.5 | 
45 | C#CCOc1cccc(-c2coc3cc(OCc4cnn(-c5ccccc5)c4)ccc3c2=O)c1 [SW 209087-1] | 49.5 | 49.5 | 0.106 |  |  |  | 
46 | OC(CCc1ccc(Br)cc1)Cn1ccnc1 (centres unmarked) [SW 209089-1] | 49.5 | 49.5 | ≥ 49.5 |  |  |  | 

— patent publication US9789096B2, “Methods and compositions for selective and targeted cancer therapy” (Board of Regents of the University of Texas System, priority 2013, dated 2017)
